In patent US20080200473A1, “Imidazo [1,2-a]Pyridine Compounds, Compositions, Uses and Methods Thereto” (Ferrer Internacional, S.A., priority 2004, published 2008):

Tests used:
[1] = test system: α1-GABAA receptor; experiment: Ligand-binding assay, competitive with radiolabeled flumazenil, cerebellum membranes; details: Affinity for α1-GABAA receptor, rat cerebellum membranes, radiolabeled flumazenil 1 nM; for % Inhibition 10^−5M: 10^-5M test compound; for % Inhibition 10^−7M: 10^-7M test compound
Protocol: (§1) Ligand-binding assays. Determination of the affinity of test compounds for α1- and α2-GABAA receptor.
(§2) Male Sprague-Dawley rats weighing 200-250 g at the time of experiment were used. After decapitation of the animal, the cerebellum (tissue that mostly contains α1-GABAA receptor) and spinal cord (tissue that mostly contains α2-GABAA receptor) were removed. The membranes were prepared according to the method by J. Lameh et al. (Prog. Neuro-Psychopharmacol. Biol. Psychiatry, 24, 979-991, 2000) and H. Noguchi et al. (Eur. J. Pharm., 434, 21-28, 2002). Once the tissues weighed, they were suspended in 50 mM Tris.HCl (pH 7.4), 1:40 (w/v), or sucrose 0.32 M in the case of spinal cord, homogenized and then centrifuged at 20,000 g for 10 min at 7° C. twice. The resulting pellet was resuspended under the same conditions and centrifuged again. The pellet was finally resuspended on a minimum volume and kept at −80° C. overnight. On the next day, the process was repeated until the final pellet was resuspended at a ratio of 1:10 (w/v) in the case of cerebellum and at a ratio of 1:5 (w/v) in the case of spinal cord.
(§3) Affinity was determined by competitive tests using radiolabeled flumazenil as ligand. The tests were performed according to the methods described by S. Arbilla et al. (Eur. J. Pharmacol., 130, 257-263, 1986); and Y. Wu et al. (Eur. J. Pharmacol., 278, 125-132, 1995) using 96-well microtiter plates. The membranes containing the study receptors, flumazenil (radiolabeling at a final concentration of 1 nM) and ascending concentrations of test compounds (in a total volume of 230 μL in 50 mM [ph 7.4] Tris.HCl buffer) were incubated. Simultaneously, the membranes were only incubated with the radiolabeled flumazenil (total binding, 100%) and in the presence of an elevated concentration of unradiolabeled flumazenil (non-specific binding, % estimation of radiolabeled ligand). The reactions started on adding the radiolabeled ligand followed by incubation for 60 minutes at 4° C. At the end of the incubation period, 200 μL of reaction were transferred to a multiscreen plate (Millipore) and filtered using a vacuum manifold and then washed three times with cold test buffer. The multiscreen plates were equipped with a GF/B filter that retained the membranes containing the receptors and the radiolabeled ligand which has been bound to the receptors. After washing, the plates were left till dry. Once dried, scintillation liquid was added and left under stirring overnight. The next day the plates were counted using a Perkin-Elmer Microbeta scintillation counter.
(§4) For analysis of the results the percentage of specific binding for every concentration of test compound was calculated as follows:
(§5) % specific binding=(X−N/T−N)×100
(§6) where, X: amount of bound ligand for every concentration of compound. T: total binding, maximum amount bound to the radiolabeled ligand. N: non-specific binding, amount of radiolabeled ligand bound in a non-specific way irrespective of the receptor used.
(§7) Every concentrations of compound were tested in triplicate and their mean values were used to determine the experimental values of % specific binding versus the concentration of compound. Affinity data are expressed as % inhibition at 10^-5M and 10^-7M concentrations.

[2] = test system: α2-GABAA receptor; experiment: Ligand-binding assay, competitive with radiolabeled flumazenil, spinal cord membranes; details: Affinity for α2-GABAA receptor, rat spinal cord membranes, radiolabeled flumazenil 1 nM; for % Inhibition 10^−5M: 10^-5M test compound; for % Inhibition 10^−7M: 10^-7M test compound
Protocol: as §1, §2, §3, §4, §5, §6, §7

[3] = test system: mice; experiment: In vivo predictive sedation-hypnosis test (inhibition of traveled distance); set-up: species or system mouse; details: male CD1 mice; single equimolecular intraperitoneal doses; traveled distance over 30 min after dosing (first 5 min discarded) versus control
Protocol: In vivo determination of predictive sedative-hypnotic action.
The in vivo effects of these compounds were assessed by a predictive sedation-hypnosis test in mice (D. J. Sanger et al., Eur. J. Pharmacol., 313, 35-42, 1996; and G. Griebel et al., Psychopharmacology, 146, 205-213, 1999).
Groups of 5-8 male CD1 mice, weighing 22-26 g at the time of test, were used. The test compounds were administered in single equimolecular intraperitoneal doses, suspended in 0.25% agar with one drop of Tween in a volume of 10 mL/kg. Control animals received the vehicle alone. Using a Smart System (Panlab, S. L., Spain) the traveled distance in cm is recorded for each mouse at 5-min intervals during a period of 30 minutes after dosing. The inhibition percentage of traveled distance of treated animals versus control animals (the first 5 min were discarded) was calculated.

SMILES | % Inhibition 10^−5M [1] [%] | % Inhibition 10^−7M [1] [%] | % Inhibition 10^−5M [2] [%] | % Inhibition 10^−7M [2] [%] | % Inhibition Motor Activity [3] [%]
Cc1ccc(-c2nc3ccc(C)cn3c2CNC(=O)c2cccnc2)cc1 [Example 63, N-(6-Methyl-2-p-tolyl-imidazo[1,2-a]pyridin-3-ylmethyl)-nicotinamide] | 98.5 | 36.1 | 89.8 | 13.4 | 74.86
Cc1ccc(-c2nc3ccc(C)cn3c2CNC(=O)C2=NNC(=O)CC2)cc1 [Example 65, 6-Oxo-1,4,5,6-tetrahydro-pyridazine-3-carboxylic acid (6-methyl-2-p-tolyl-imidazo[1,2-a]pyridin-3-ylmethyl)-amide] | 99.5 | 83.9 | 95.4 | 39.1 | 85.22
Cc1ccc(-c2nc3ccc(C)cn3c2CNC(=O)c2cc(C)n(C)n2)cc1 [Example 67, 1,5-Dimethyl-1H-pyrazole-3-carboxylic acid (6-methyl-2-p-tolyl-imidazo[1,2-a]pyridin-3-ylmethyl)-amide] | 99.6 | 84.7 | 96.6 | 47.3 | 78.09
Cc1ccc(-c2nc3ccc(C)cn3c2CNC(=O)c2csc(C)n2)cc1 [Example 69, 2-Methyl-thiazole-4-carboxylic acid (6-methyl-2-p-tolyl-imidazo[1,2-a]pyridin-3-ylmethyl)-amide] | 100.4 | 93.4 | 98.8 | 74.1 | 78.41
Cc1ccc(-c2nc3ccc(C)cn3c2CNC(=O)c2csnn2)cc1 [Example 70, [1,2,3]Thiadiazole-4-carboxylic acid (6-methyl-2-p-tolyl-imidazo[1,2-a]pyridin-3-ylmethyl)-amide] | 100.4 | 79.7 | 97.7 | 25.6 | 90.77
Cc1ccc(-c2nc3ccc(C)cn3c2CNC(=O)Cc2cccs2)cc1 [Example 71, N-(6-Methyl-2-p-tolyl-imidazo[1,2-a]pyridin-3-ylmethyl)-2-thiophen-2-yl-acetamide] | 96.4 | 21.9 | 67.8 | 7.2 | 94.08
Cc1ccc(-c2nc3ccc(C)cn3c2CNC(=O)c2cc(C)on2)cc1 [Example 72, 5-Methyl-isoxazole-3-carboxylic acid (6-methyl-2-p-tolyl-imidazo[1,2-a]pyridin-3-ylmethyl)-amide] | 99.8 | 73.4 | 95 | 33.1 | 73.81
Cc1ccc(-c2nc3ccc(C)cn3c2CNC(=O)c2cn(C)cn2)cc1 [Example 74, 1-Methyl-1H-imidazole-4-carboxylic acid (6-methyl-2-p-tolyl-imidazo[1,2-a]pyridin-3-ylmethyl)-amide] | 99.9 | 95.3 | 98.6 | 63.0 | 77.37
Cc1ccc(-c2nc3ccc(C)cn3c2CNC(=O)c2nccn2C)cc1 [Example 78, 1-Methyl-1H-imidazole-2-carboxylic acid (6-methyl-2-p-tolyl-imidazo[1,2-a]pyridin-3-ylmethyl)-amide] | 100.2 | 97.9 | 98.8 | 85.9 | 88.10
Cc1ccc(-c2nc3ccc(C)cn3c2CNC(=O)c2cscn2)cc1 [Example 81, Thiazole-4-carboxylic acid (6-methyl-2-p-tolyl-imidazo[1,2-a]pyridin-3-ylmethyl)-amide] | 99.6 | 69.9 | 94.3 | 1.5 | 84.31
